# Results taken from patent EP4678639A1, “SALT OF BENZIMIDAZOLE DERIVATIVE” (JW Pharmaceutical Corporation, priority 2023, dated 2024).
# Counter-ions that a name gives are not always drawn.
# How the values were obtained:
# [1] = Solid-state accelerated stability test (40 ± 2 °C/RH 75 ± 5 %)
# Description: (§1) Operation and Calculation: The blank solution, standard solution, and test solution were sequentially tested under the instrument operating conditions according to the liquid chromatography method in the General Test Methods of the 12th Edition of the Korean Pharmacopoeia, and the amount of related substances was calculated using the following equation. Amount of each related; substance (%) = (AT)/(AS) × (CS)/(CT) × (Molecular weight; of the sample)/(Molecular weight; of the standard; product) × P × (1)/(RR; F) [formula] AT = Area of each related substance peak obtained from the test solution AS = Area of the tegoprazan peak obtained from the standard solution CS = Concentration of standard solution (mg/mL) CT = Concentration of test solution (mg/mL) P = Purity/Assay/Potency (%) of standard product RRF = Relative response factor (1.0)
# (§2) A solid-state stability comparative test was conducted on each of the above-mentioned prepared tegoprazan acid addition salts. The stability comparative test was conducted for 1 month under the conditions shown in Table 6 below in accordance with The International Council for Harmonisation of Technical Requirements for Pharmaceuticals for Human Use (ICH) guideline, and the purity of the acid addition salt, total related substances, and the content of degradants were measured by HPLC at the initial time point and after 1 month. Total related substances and degradants were measured according to the related substance test method (HPLC).
# [2] = Photostability test, visible light (1.2 Mlux·hr) exposure
# [3] = Liquid stability comparative test (20 mg/mL in purified water, 40 °C, 24 hours, HPLC); assay type: physicochemical
# Description: The analysis conditions are as follows.
# Each sample was dissolved in purified water to prepare a solution with a concentration of 20 mg/mL, stored at an external temperature of 40 °C, and analyzed by HPLC at the initial time point and after 24 hours to measure purity, and the change in the generated degradant (Formula 4) was measured. The analysis of total related substances and degradants was performed by taking a liquid from a solution prepared at a concentration of 20 mg/mL, diluting it to a concentration of 4 mg/mL with the diluent of the related substance test method (HPLC), and measuring it as a test solution, and analyzing it according to the related substance test method (HPLC).
# [4] = Solid-state stress stability test (temperature 60 °C)
# Description: as §1, §2
# 2) Stress Stability Test (temperature 60 °C)
# [5] = Photostability test, ultraviolet light (200 W·hr/m2) exposure
# Description: A photostability comparative test was conducted on each of the above-mentioned prepared tegoprazan acid addition salts. The test was conducted by exposing the sample to light with an energy of 200 W hr/m^2 of ultraviolet light and 1.2 Mlux hr of visible light in accordance with The International Council for Harmonisation of Technical Requirements for Pharmaceuticals for Human Use (ICH) guideline, with the samples packaged in a single PE bag and spread thinly enough to ensure exposure to the light source, taking humidity stability into consideration. The purity of the acid addition salts and the change in the amount of degradants at the initial time point and after exposure to ultraviolet light or visible light were measured by HPLC.
# [6] = Solid-state stress stability test (humidity 90 % RH)
# Description: as §1, §2
# 3) Stress Stability (humidity 90 % RH)
# [7] = Raw material stability test versus tegoprazan freebase (60 °C or 90 % RH); assay type: physicochemical
# [8] = Stability test by formulation (tablets and orally disintegrating tablets, 60 °C or 90 % RH); assay type: physicochemical; conditions: tablets and orally disintegrating tablets prepared with the named salt, versus reference drug
# Description: The amount of total related substances under stress storage conditions (temperature/humidity) was measured using liquid chromatography (HPLC) using an Infinity 1260 (Agilent) equipment. The analysis conditions are as follows.
# To minimize the influence of additives, each test formulation was selected with the same additives as the reference drug (K-CAB tablets 50 mg, K-CAB orally disintegrating tablets 50 mg) disclosed in the Ministry of Food and Drug Safety Pharmaceutical Integrated Information System, and to minimize differences due to the granule manufacturing process, the formulation was prepared using the simple mixing (direct compression) method. Each formulation was as shown in Tables 16 and 17 below, and the stability conditions were conducted for each formulation under the storage conditions of 60 °C, which is a stress temperature condition, and 90 % RH, which is a stress humidity condition, respectively.
# Stability tests were conducted under stress storage conditions (temperature/humidity) for each formulation. The results of measuring the amount of total related substances after storage under stress conditions for 1 week or 3 weeks are shown in FIG. 18 and FIG. 19.
# [9] = 40 ± 2 °C / RH 75 ± 5 %, 1 month
# [10] = Table 11 under heading Visible Light (1.2 Mlux-hr) Exposure Test
# [11] = Table 10, UV 200 W·hr/m2, PE bag
smiles,measurement,setting,value
Cc1nc2c(O[C@H]3CCOc4cc(F)cc(F)c43)cc(C(=O)N(C)C)cc2[nH]1 [Methanesulfonate Salt (Crystalline Form)],After 1 Month (%) Degradant,[1]; [9],0.518%
same,After 1 Month (%) Total Related substances,[1]; [9],0.727%
same,Change (%) Degradant,"[1]; 40 ± 2 °C / RH 75 ± 5 %, 1 month vs initial",0.396%
same,Initial (%) Total Related substances,"[1]; Table 7, initial",0.265%
same,Initial (%) Degradant,"[1]; Table 7, initial, degradant of Formula 4",0.122%
same,Change in Quality (%) Accelerated (4 weeks) Degradant,[1]; Table 12 summary,0.396%
same,Change in Quality (%) Accelerated (4 weeks) Purity,[1]; Table 12 summary,-0.462%
same,increase in total related substances after 1 month,[1]; accelerated stability,≥ 0.3%
same,Change (%) Degradant,"[2]; Table 11, after exposure vs initial",0.086%
same,Initial (%) Degradant,"[2]; Table 11, initial",0.122%
same,Initial (%) Total Related substances,"[2]; Table 11, initial",0.265%
same,After (%) Degradant,[2]; [10],0.208%
same,After (%) Total Related substances,[2]; [10],0.412%
same,Change in Quality (%) Light (Visible) Degradant,[2]; Table 12 summary,0.086%
same,After 24 hours Purity (%),"[3]; 20 mg/mL in purified water, 40 °C, 24 hours",99.47%
same,Initial Purity (%),"[3]; 20 mg/mL in purified water, initial time point",99.95%
same,After 24 hours Degradant (%),"[3]; degradant of Formula 4, 20 mg/mL in purified water, 40 °C, 24 hours",0.446%
same,Initial Degradant (%),"[3]; degradant of Formula 4, 20 mg/mL in purified water, initial time point",0.028%
same,Amount of Change Degradant (%),[3]; initial vs after 24 hours at 40 °C,0.42%
same,increase in degradants (degradant of Formula 4),"[3]; liquid stability, 40 °C, 24 hours",≤ 0.5%
same,total related substances increased after 1 month,[4]; 60 °C,≥ 5.0%
same,After 1 Month (%) Degradant,"[4]; 60 °C, 1 month",4.167%
same,After 1 Month (%) Total Related substances,"[4]; 60 °C, 1 month",5.408%
same,"change in appearance, change in the color of the solid","[4]; 60 °C, 1 month",change in appearance
same,Change (%) Degradant,"[4]; 60 °C, 1 month vs initial",4.045%
same,Remarks,"[4]; 60 °C, 1 month, appearance",Discolorat ion
same,Initial (%) Degradant,"[4]; Table 8, initial",0.122%
same,Initial (%) Total Related substances,"[4]; Table 8, initial",0.265%
same,Change in Quality (%) 60 °C (4 weeks) Degradant,[4]; Table 12 summary,4.045%
same,Change in Quality (%) 60 °C (4 weeks) Purity,[4]; Table 12 summary,-5.143%
same,60 °C (4 weeks) appearance remark,"[4]; Table 12 summary, remark in brackets under the 60 °C columns",(Discoloration)
same,After Ultraviolet Light Exposure (200 W hr/m2)(%) Degradant,[5]; [11],0.168%
same,After Ultraviolet Light Exposure (200 W hr/m2)(%) Total Related substances,[5]; [11],0.339%
same,Change (%) Degradant,"[5]; Table 10, after UV exposure vs initial",0.046%
same,Initial (%) Degradant,"[5]; Table 10, initial",0.122%
same,Initial (%) Total Related substances,"[5]; Table 10, initial",0.265%
same,Change in Quality (%) Light (Ultraviolet) Degradant,[5]; Table 12 summary,0.046%
same,Change in Quality (%) Light (Ultraviolet) Purity,[5]; Table 12 summary,0.074%
same,absorb moisture and deliquesce / melted,[6]; 90 % RH,absorb moisture and deliquesce
same,Remarks,"[6]; 90 % RH, 1 month, state of the solid",Melted
same,Initial (%) Degradant,"[6]; Table 9, initial",0.122%
same,Initial (%) Total Related substances,"[6]; Table 9, initial",0.265%
same,Change in Quality (%) 90 % RH (4 weeks) Degradant,[6]; Table 12 summary,Melted
same,Change in Quality (%) 90 % RH (4 weeks) Purity,[6]; Table 12 summary,Melted
same,"change in appearance, 60 °C","[7]; 60 °C, 3 weeks",No change in appearance
same,"change in appearance, 90 % RH","[7]; 90 % RH, 3 weeks",Dissolved to transparency
same,"change in appearance, Initial",[7]; initial,No change in appearance
same,amount of total related substances generated (FIG. 13),"[7]; stress temperature/humidity storage, compared to tegoprazan freebase",significantly increased
same,amount of total related substances generated (FIGS. 18 and 19),"[8]; 60 °C or 90 % RH, 1 or 3 weeks",significantly increased
same,degree of weight gain (FIG. 17),"[8]; 90 % RH, 3 weeks",greater
